Results taken from US20250270200A1, “CTPS1 INHIBITORS AND USES THEREOF” (Nimbus Clotho, Inc., priority 2022, published 2025).
pIC50: −log10 of the molar value. Structures can show the parent of a compound that is named as a salt.

Molecular target: T1, human CTPS1 (Homo sapiens, UniProt P17812)
T1 sequence (P17812 1-591): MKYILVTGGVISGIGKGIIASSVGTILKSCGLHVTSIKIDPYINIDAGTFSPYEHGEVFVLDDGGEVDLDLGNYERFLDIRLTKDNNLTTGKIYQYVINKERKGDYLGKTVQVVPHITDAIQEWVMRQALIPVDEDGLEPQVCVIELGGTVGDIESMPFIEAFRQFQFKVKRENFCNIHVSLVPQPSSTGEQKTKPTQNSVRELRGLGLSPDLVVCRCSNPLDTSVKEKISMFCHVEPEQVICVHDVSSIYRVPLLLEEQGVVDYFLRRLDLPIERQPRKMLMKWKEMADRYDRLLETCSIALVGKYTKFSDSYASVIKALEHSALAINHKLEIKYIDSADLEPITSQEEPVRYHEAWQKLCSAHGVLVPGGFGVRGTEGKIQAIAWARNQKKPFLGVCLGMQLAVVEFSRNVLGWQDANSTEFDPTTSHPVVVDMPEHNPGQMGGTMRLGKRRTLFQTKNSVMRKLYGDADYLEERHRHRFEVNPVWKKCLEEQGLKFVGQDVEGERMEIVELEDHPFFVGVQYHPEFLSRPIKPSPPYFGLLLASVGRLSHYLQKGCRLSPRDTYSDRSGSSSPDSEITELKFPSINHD
Assay: ADP-Glo assay, human CTPS1 enzyme inhibition
Assay type: biochemical
Conditions: wild-type human CTPS1, 25 nM enzyme; ADP-Glo; read-out: ADP-Glo_WT_hCTPS1—25 nM_IC50 (IC50)
Procedure, shortened: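 Full-length tagged human CTPS1 (25 nM) pre-incubated 10 min at 25° C with compound, then 10 min with ATP (120 μM) and UTP (160 μM); reaction started with L-glutamine (100 μM) and GTP (60 μM), 1% DMSO, in HEPES pH 7.4, 10 mM Mg2+, 5 mM KCl, 2 mM DTT. Run within linear phase at 25° C; ADP measured by ADP-Glo luminescence.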

| SMILES | pIC50 |
| --- | --- |
| CCOc1cncc(-c2cnc(C(=O)N[C@@H](C[C@@H]3CCCCN3C(C)C)c3cc(NS(=O)(=O)C4CC4)ccn3)s2)n1 (single isomer, unassigned) [I-26] | < 7.00 |
| CCOc1cncc(-c2cnc(C(=O)N[C@H](CN3CCCC3=O)c3cc(NS(=O)(=O)C4CC4)ccn3)s2)n1 [I-137, (R)-N-(1-(4-(cyclopropanesulfonamido)pyridin-2-yl)-2-(2-oxopyrrolidin-1-yl)ethyl)-5-(6-ethoxypyrazin-2-yl)thiazole-2-carboxamide] | 7.30 to 7.60 |
| CCOc1cncc(-c2cnc(C(=O)N[C@H](c3cc(NS(=O)(=O)C4CC4)ccn3)[C@@H]3CC(=O)N(C)C3)s2)n1 [I-119, N-((S)-(4-(cyclopropanesulfonamido)pyridin-2-yl)((R)-1-methyl-5-oxopyrrolidin-3-yl)methyl)-5-(6-ethoxypyrazin-2-yl)thiazole-2-carboxamide] | 7.30 to 7.60 |
| CCOc1cncc(-c2cnc(C(=O)N[C@H](CCN(C)C3CCCCC3)c3cc(NS(=O)(=O)C4CC4)ccn3)s2)n1 (single isomer, unassigned) [I-14] | 7.60 to 8.30 |
| CCOc1cncc(-c2cnc(C(=O)NC(CC(C)(C)N(C)C)c3cc(NS(=O)(=O)C4CC4)ccn3)s2)n1 (centres unmarked) [I-48, N-(1-(4-(cyclopropanesulfonamido)pyridin-2-yl)-3-(dimethylamino)-3-methylbutyl)-5-(6-ethoxypyrazin-2-yl)thiazole-2-carboxamide] | 7.60 to 8.30 |
| CCOc1cncc(-c2cnc(C(=O)N[C@]3(c4cc(NS(=O)(=O)C5CC5)ccn4)C[C@@H](O)C3)s2)n1 [I-88, N-((1r,3r)-1-(4-(cyclopropanesulfonamido)pyridin-2-yl)-3-hydroxycyclobutyl)-5-(6-ethoxypyrazin-2-yl)thiazole-2-carboxamide] | ≥ 8.30 |
| CCOc1cncc(-c2cnc(C(=O)N[C@H](CF)c3cc(NS(=O)(=O)C4CC4)ccn3)s2)n1 [I-161, (S)-N-(1-(4-(cyclopropanesulfonamido)pyridin-2-yl)-2-fluoroethyl)-5-(6-ethoxypyrazin-2-yl)thiazole-2-carboxamide] | ≥ 8.30 |
| CCOc1cncc(-c2cnc(C(=O)N[C@H](c3cc(NS(=O)(=O)C4CC4)ccn3)[C@@H]3COCCO3)s2)n1 [I-74, N-((R)-(4-(cyclopropanesulfonamido)pyridin-2-yl)((R)-1,4-dioxan-2-yl)methyl)-5-(6-ethoxypyrazin-2-yl)thiazole-2-carboxamide] | 7.60 to 8.30 |
| CCOc1cncc(-c2cnc(C(=O)N[C@@H](CN3C[C@@H]4CC[C@H]3CO4)c3cc(NS(=O)(=O)C4CC4)ccn3)s2)n1 [I-135, N-((S)-2-((1S,4S)-2-oxa-5-azabicyclo[2.2.2]octan-5-yl)-1-(4-(cyclopropanesulfonamido)pyridin-2-yl)ethyl)-5-(6-ethoxypyrazin-2-yl)thiazole-2-carboxamide] | ≥ 8.30 |
| CCOc1cncc(-c2ccc(C(=O)N[C@H](c3cc(NS(=O)(=O)C4CC4)ccn3)[C@@H]3CCCO3)nc2)n1 [I-68, N-((R)-(4-(cyclopropanesulfonamido)pyridin-2-yl)((S)-tetrahydrofuran-2-yl)methyl)-5-(6-ethoxypyrazin-2-yl)picolinamide] | 7.30 to 7.60 |
| O=C(N[C@]1(c2cc(NS(=O)(=O)C3CC3)ccn2)C[C@H](O)C1)c1ncc(-c2cnn3ccc(Cl)cc23)s1 [I-89, 5-(5-chloropyrazolo[1,5-a]pyridin-3-yl)-N-((1s,3s)-1-(4-(cyclopropanesulfonamido)pyridin-2-yl)-3-hydroxycyclobutyl)thiazole-2-carboxamide] | 7.60 to 8.30 |
| CCOc1cncc(-c2cnc(C(=O)N[C@H](c3cc(NS(=O)(=O)C4CC4)ccn3)C(C)(C)CN(C)C)s2)n1 (single isomer, unassigned) [I-42] | 7.00 to 7.30 |
| CCOc1cncc(-c2cnc(C(=O)N[C@H](C[C@H]3COCCN3C)c3cc(NS(=O)(=O)C4CC4)ccn3)s2)n1 [I-104, N-((R)-1-(4-(cyclopropanesulfonamido)pyridin-2-yl)-2-((S)-4-methylmorpholin-3-yl)ethyl)-5-(6-ethoxypyrazin-2-yl)thiazole-2-carboxamide] | ≥ 8.30 |
| CCOc1cncc(-c2cnc(C(=O)N[C@H](c3cc(NS(=O)(=O)C4CC4)ccn3)[C@H]3CCN(CCF)C3)s2)n1 [I-107, N-((S)-(4-(cyclopropanesulfonamido)pyridin-2-yl)((S)-1-(2-fluoroethyl)pyrrolidin-3-yl)methyl)-5-(6-ethoxypyrazin-2-yl)thiazole-2-carboxamide] | 7.00 to 7.30 |

Results, then the compound that gave them:

| pIC50 | SMILES |
| --- | --- |
| 7.60 to 8.30 | CCOc1cncc(-c2cnc(C(=O)N[C@H](c3cccc(NS(=O)(=O)C(F)F)c3)[C@@H]3CCOC3)s2)n1 [I-188, N-((S)-(3-((difluoromethyl)sulfonamido)phenyl)((S)-tetrahydrofuran-3-yl)methyl)-5-(6-ethoxypyrazin-2-yl)thiazole-2-carboxamide] |
| 7.60 to 8.30 | CCOc1cncc(-c2cnc(C(=O)N[C@H](c3cc(NS(=O)(=O)C4CC4)ccn3)C(C)(C)O)s2)n1 [I-276, (R)-N-(1-(4-(cyclopropanesulfonamido)pyridin-2-yl)-2-hydroxy-2-methylpropyl)-5-(6-ethoxypyrazin-2-yl)thiazole-2-carboxamide] |
| 7.60 to 8.30 | O=C(N[C@H](c1cccc(NS(=O)(=O)C(F)F)c1)C1CCOCC1)c1ncc(-c2cnn3ccc(Cl)cc23)s1 [I-196, (S)-5-(5-chloropyrazolo[1,5-a]pyridin-3-yl)-N-((3-((difluoromethyl)sulfonamido)phenyl)(tetrahydro-2H-pyran-4-yl)methyl)thiazole-2-carboxamide] |
| 7.60 to 8.30 | CCOc1cncc(-c2cnc(C(=O)NC3(c4cc(NS(=O)(=O)C5CC5)ccn4)CC3)s2)n1 [I-179, N-(1-(4-(cyclopropanesulfonamido)pyridin-2-yl)cyclopropyl)-5-(6-ethoxypyrazin-2-yl)thiazole-2-carboxamide] |
| 7.60 to 8.30 | CCOc1cncc(-c2cnc(C(=O)N[C@]3(c4cccc(NS(=O)(=O)C(F)F)c4)C[C@@H](O)C3)s2)n1 [I-203, N-((1r,3r)-1-(3-((difluoromethyl)sulfonamido)phenyl)-3-hydroxycyclobutyl)-5-(6-ethoxypyrazin-2-yl)thiazole-2-carboxamide] |
| 7.00 to 7.30 | COC[C@@H](NC(=O)c1ccc(-c2cnn3ccc(Cl)cc23)cc1F)c1cc(NS(=O)(=O)C2CC2)ccn1 [I-285, (S)-4-(5-chloropyrazolo[1,5-a]pyridin-3-yl)-N-(1-(4-(cyclopropanesulfonamido)pyridin-2-yl)-2-methoxyethyl)-2-fluorobenzamide] |
| 7.60 to 8.30 | CCOc1cncc(-c2cnc(C(=O)N[C@H](Cn3ccnn3)c3cccc(NS(=O)(=O)C(F)F)c3)s2)n1 [I-215, (S)-N-(1-(3-((difluoromethyl)sulfonamido)phenyl)-2-(1H-1,2,3-triazol-1-yl)ethyl)-5-(6-ethoxypyrazin-2-yl)thiazole-2-carboxamide] |
| 7.30 to 7.60 | CCOc1cncc(-c2cnc(C(=O)N[C@H](c3cc(NS(=O)(=O)C4CC4)ccn3)[C@@H](C)N3C[C@H]4C[C@@H]3CO4)s2)n1 [I-167, N-((1S,2R)-2-((1R,4R)-2-oxa-5-azabicyclo[2.2.1]heptan-5-yl)-1-(4-(cyclopropanesulfonamido)pyridin-2-yl)propyl)-5-(6-ethoxypyrazin-2-yl)thiazole-2-carboxamide] |
| 7.30 to 7.60 | CCOc1cncc(-c2cnc(C(=O)N[C@@H](CN3CCN(C4CC4)CC3)c3cc(NS(=O)(=O)C4CC4)ncn3)s2)n1 [I-248, (S)-N-(1-(6-(cyclopropanesulfonamido)pyrimidin-4-yl)-2-(4-cyclopropylpiperazin-1-yl)ethyl)-5-(6-ethoxypyrazin-2-yl)thiazole-2-carboxamide] |
| 7.60 to 8.30 | CCOc1cncc(-c2cnc(C(=O)N[C@H](CN3CC[C@](C)(O)C3)c3cccc(NS(=O)(=O)C(F)F)c3)s2)n1 [I-208, N-((S)-1-(3-((difluoromethyl)sulfonamido)phenyl)-2-((S)-3-hydroxy-3-methylpyrrolidin-1-yl)ethyl)-5-(6-ethoxypyrazin-2-yl)thiazole-2-carboxamide, formic acid salt] |
| 7.00 to 7.30 | CCOc1cncc(-c2cnc(C(=O)N[C@H](CN3C[C@H]4C[C@@H]3CO4)c3cncc(NS(=O)(=O)C4CC4)n3)s2)n1 [I-253, N-((R)-2-((1R,4R)-2-oxa-5-azabicyclo[2.2.1]heptan-5-yl)-1-(6-(cyclopropanesulfonamido)pyrazin-2-yl)ethyl)-5-(6-ethoxypyrazin-2-yl)thiazole-2-carboxamide, formic acid salt] |
| 7.60 to 8.30 | CCOc1cncc(-c2cnc(C(=O)N[C@@H](CN3CC[C@@](C)(O)C3)c3cccc(NS(=O)(=O)C(F)F)c3)s2)n1 [I-206, N-((R)-1-(3-((difluoromethyl)sulfonamido)phenyl)-2-((R)-3-hydroxy-3-methylpyrrolidin-1-yl)ethyl)-5-(6-ethoxypyrazin-2-yl)thiazole-2-carboxamide] |
